Assay results taken from patent publication US10302644B2, “Compositions and methods for treating multiple myeloma” (Dana-Farber Cancer Institute, Inc., priority 2014, dated 2019).
“Also recorded” adds a separate entry of the source.

Tests used:
[1] = system: p53; test: Immunoblotting of p53 and phosphorylated p53 in MM cells; assay type: cell-based
Protocol: (§1) MM cells were harvested and lysed using RIPA-lysis buffer (Boston Bioproducts, Ashland, Mass.) containing 5 mM EDTA, 5 mM NaF, 2 mM Na3VO4, 1 mM PMSF, 5 μg/ml leupeptin, and 5 μg/ml aprotinin. Nuclear proteins were extracted using “Nuclear Extraction Kit” (Affimetrix). After the determination of protein concentration using DC protein assay (Bio-Rad, Hercules, Calif.), β-mercaptoethanol (-ME) was added to the whole-cell lysates to a 2% final concentration. The whole cell lysates or nuclear extracts were subjected to SDS-PAGE, transferred to nitrocellulose membranes (Bio-Rad, Hercules, Calif.) or polyvinylidene fluoride membranes (Millipore, Billerica, Mass.), and immunoblotted with indicated Abs. Silver staining was carried out using “SilverQuest Staining Kit®” (Invitrogen), according to manufacturer's protocol.

[2] = system: LC3-II, Bim, PARP, MDM2, XIAP, cIAP, p-p70S6K; test: Immunoblotting/qPCR of autophagy and apoptosis proteins in MM cells; assay type: cell-based; conditions: MM.1S cells
Protocol: as §1
(§2) RNA was extracted using Trizol (Invitrogen) and quantified by a Nanodrop spectrophotometer (Labtech). Specifically, 5×10^6 cells were pelleted, washed with cold PBS, and resuspended in 1 mL Trizol. They were then incubated with 1-Bromo-3-chloropropane (Sigma), washed first with Isopropyl alcohol and then with 75% Ethanol, and resuspended in Nuclease Free-water (Invitrogen). After quantification, 2000 ng of RNA was used to synthesize cDNA via the Superscript II First strand synthesis Kit (Invitrogen), according to the manufacturer's instructions. To evaluate the expression levels of TP53RK, BCL2L11, MYC, Bim, E2F1, TP53, IKZF1, IKZF3, RRM1, p18CDKN2C, PSMB5, PSMB7, PSMA3 and GAPDH, quantitative real time PCR (QRT-PCR) was performed using SYBR GREEN PCR Master Mix (Applied Biosystem), after optimization of the primer conditions. cDNAs were diluted 1:100 or 1:1000 and amplified in a 20 μL reaction. Primers were used at 200 nM or 400 nM concentration. Thermal cycling conditions were: 10 minutes at 95° C., 40 cycles at 95° C. for 15 seconds, followed by 1 minute at 60° C. Real-time quantitative PCR was performed on ABI Prism 7300 Sequence Detection System (Applied Biosystems). Data were analyzed using the delta delta Ct method. GAPDH was used as an invariant control.

[3] = target: T1, TP53RK (Homo sapiens, UniProt Q96S44); test: In vitro TP53RK auto-phosphorylation assay; assay type: biochemical; conditions: dose-dependent; recombinant TP53RK and TPRKB
T1 construct: made in house; host or cells: HEK-293FT (transient calcium phosphate transfection; anti-DDK beads, Superdex 200)
Excerpt: Full-length TP53RK and TPRKB sequences obtained from OriGene (Rockville, Md.) were cloned and inserted into pCMV6-AC-Myc-DDK. These constructs were transiently transfected into HEK-293FT cells to overexpress recombinant C-terminal Myc-DDK tagged TP53RK and TPRKB by calcium phosphate transfection. The recombinant proteins were immunoprecipitated with anti-DDK agarose beads and subjected to gel chromatography using Superdex 200 sizing column with an HPLC system. TP53RK and TPRKB proteins were co-eluted in the same fraction, whereas the TPRKB single protein was eluted in later fractions.
In vitro TP53RK auto-phosphorylation assay was performed as previously described^2. Briefly, purified recombinant TP53RK and TPRKB proteins (1.5-3 μg/reaction) were incubated with 25 uM [γ-32P]ATP (3000 Ci/mmol, 10 mCi/mL, PerkinElmer, Boston, Mass.) in HEPES buffer (25 mM HEPES (pH 7.5), 100 mM NaCl, 25 mM MgCl2. 2 mM DTT, phosphatase inhibitor mix (Roche) for 30 min at 30° C. The reaction was terminated by adding SDS sample buffer, and reaction mixtures were subjected to SDS-PAGE and autoradiography, as well as Coomassie blue staining.

[4] = system: c-Myc, IKZF1/3; test: c-Myc and IKZF1/3 expression (immunoblotting, qPCR); assay type: cell-based
Protocol: (§3) MM cells were harvested and lysed using RIPA-lysis buffer (Boston Bioproducts, Ashland, Mass.) containing 5 mM EDTA, 5 mM NaF, 2 mM Na3VO4, 1 mM PMSF, 5 μg/ml leupeptin, and 5 μg/ml aprotinin. Nuclear proteins were extracted using “Nuclear Extraction Kit” (Affimetrix). After the determination of protein concentration using DC protein assay (Bio-Rad, Hercules, Calif.), β-mercaptoethanol (-ME) was added to the whole-cell lysates to a 2% final concentration. […]
(§4) RNA was extracted using Trizol (Invitrogen) and quantified by a Nanodrop spectrophotometer (Labtech). […] After quantification, 2000 ng of RNA was used to synthesize cDNA via the Superscript II First strand synthesis Kit (Invitrogen), according to the manufacturer's instructions. To evaluate the expression levels of TP53RK, BCL2L11, MYC, Bim, E2F1, TP53, IKZF1, IKZF3, RRM1, p18CDKN2C, PSMB5, PSMB7, PSMA3 and GAPDH, quantitative real time PCR (QRT-PCR) was performed using SYBR GREEN PCR Master Mix (Applied Biosystem), after optimization of the primer conditions. cDNAs were diluted 1:100 or 1:1000 and amplified in a 20 μL reaction. […] Real-time quantitative PCR was performed on ABI Prism 7300 Sequence Detection System (Applied Biosystems). Data were analyzed using the delta delta Ct method. […]

[5] = system: proteasome; test: Proteasome pathway (GSEA, qPCR) and chymotrypsin-like proteasome activity assay; assay type: cell-based; conditions: H929 cells
Protocol: as §2
Expression data for plasma cells from healthy donors, monoclonal gammopathy of undetermined significance (MGUS), and smoldering myeloma (SMM) were derived from GSE5900 dataset, while expression data from normal plasma cells and 65 MM patients were obtained from GSE4452 dataset, using expression profiling on Affymetrix GeneChip (t test, unpaired, equal variance). […] Data were then normalized and analyzed using D-chip software, seeking statistically significant differences among groups or in p53-target gene expression. Statistical significance was determined by Student t test. The minimal level of significance was P<0.05. […] Gene set enrichment analysis (GSEA) was performed as previously described (2) (GSEA v2.0 at http://www.broad.mit.edu/gsea) using gene set as permutation type, as well as 1,000 permutations and signal to noise as metrics for ranking genes.
Proteasome activity was measured by using Proteasome-Glo™ chymotrypsin-like cell-based assay (Promega, Madison, Wis.) according to manufacturer's protocol.

[6] = system: E2F1; test: E2F1 DNA binding activity (EMSA), protein and mRNA; assay type: cell-based; conditions: MM cells
Protocol: as §3, §4

[7] = system: MM cells; test: Growth inhibition assay (MTT) / viable cell count (Trypan-blue); assay type: cell-based
Protocol: Cell growth was assessed by measuring 3-(4,5-dimethylthiazol-2-yl)-2,5-diphenyl […] bromide (MTT, Chemicon International, Temecula, Calif.) dye absorbance. Cells were pulsed with 10 μl of 5 mg/ml MTT to each well for the last 4 h of 48 h and/or 72 h cultures, followed by 100 μl isopropanol containing 0.04N HCl. Absorbance was measured at 570/630 nm using a spectrophotometer (Molecular Devices Corp., Sunnyvale Calif.).

[8] = system: RRM1, p18CDKN2C; test: RRM1 and p18CDKN2C expression (RT-qPCR, Western blot); assay type: cell-based; conditions: H929 cells
Protocol: as §1, §2

[9] = system: p53; test: p53 DNA binding activity assay; assay type: cell-based; conditions: MM.1S and H929 cells, 48 h
Protocol: E2F1 DNA binding activity was assessed by electrophoretic mobility shift assay (EMSA) using “EMSA Gel Shift Kit®” from Affimetrix (Santa Clara, Calif.), and p53 DNA binding activity was performed using “p53 Transcription Factor Assay Kit®” from Cayman Chemical (Ann Arbor, Mich.). Experiments were carried out according to manufacturer's protocols.

[10] = system: Chk1, ATM, ATR, Chk2; test: Immunoblotting of DNA damage kinase phosphorylation; assay type: cell-based; conditions: MM.1S cells, 48 h
Protocol: as §1

[11] = system: hTERT; test: hTERT expression and telomerase activity (TeloTAGGG Telomerase PCR ELISA); assay type: cell-based; conditions: MM.1S cells and H929 cells
Protocol: as §1
Telomerase activity in MM.1S and H929 cells was assessed by “TeloTAGGG Telomerase PCR ELISA®” from Roche Applied Science (Mannheim, Germany).

[12] = system: TP53RK, CRBN; test: TP53RK and CRBN expression in MM cells (immunoblotting, qPCR); assay type: cell-based
Protocol: as §1, §2
pLKO.1-based shRNA vectors were obtained from the RNAi Consortium (Broad Institute). […] After 24 h of infection, cells expressing shRNA were selected with puromycin dihydrochloride (Sigma-Aldrich) at 1-2 μg/ml for 48 h, and then examined for proliferation and/or subjected to immunoblotting analysis. For siRNA transfection, scrambled, TP53RK, CRBN, p53, c-Myc and RRM1 siRNAs were purchased from Thermo Scientific (Lafayette, Colo.). siRNA transfection was carried out by Amaxa electroporation system using “Cell Line Nucleofector® Kit V or C” solution (Lonza, Koln, Germany).

[13] = system: B cell; test: B cell growth inhibition; assay type: cell-based
[14] = system: IL-2 production; test: Co-stimulation of IL-2 production; assay type: cell-based

T1 sequence (Q96S44 whole entry, other chains not shown): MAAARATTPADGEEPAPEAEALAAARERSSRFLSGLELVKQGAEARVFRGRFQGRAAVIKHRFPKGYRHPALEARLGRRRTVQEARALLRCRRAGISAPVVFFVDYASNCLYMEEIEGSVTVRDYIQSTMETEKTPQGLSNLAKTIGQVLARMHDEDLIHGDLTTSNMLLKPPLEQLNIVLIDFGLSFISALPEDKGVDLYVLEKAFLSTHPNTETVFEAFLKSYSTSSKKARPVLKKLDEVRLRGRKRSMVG

COc1ccc(C2=N[C@@H](c3ccc(Cl)cc3)[C@@H](c3ccc(Cl)cc3)N2C(=O)N2CCNC(=O)C2)c(OC(C)C)c1 [Nut3, Nutlin-3a]
p-p53 and p53 levels ([1]; MM.1S cells, Nutlin-3a 0.5 μM, 48 h): upregulated | IMiD-triggered PARP cleavage in presence of Nut3 [2]: enhanced | MDM2 and XIAP expression [2]: upregulated | LC3-II upregulation triggered by Len and Pom, in presence of Nut3 ([2]; Nutlin-3a 0.5 μM, 48 h): markedly downregulated

Nc1cccc2c1C(=O)N(C1CCC(=O)NC1=O)C2=O (stereo not drawn) [Pom, pomalidomide]
in vitro auto-phosphorylation of TP53RK [3]: markedly downregulated | c-Myc transcription (real-time qPCR) ([4]; MM.1S cells): decreased transcription | chymotrypsin-like proteasome activity [5]: downregulation | proteasome pathway (GSEA) [5]: downregulation | E2F1 [6]: increases | drug-triggered growth inhibition in kinase-dead D163A TP53RK transfectants ([7]; H929 cells, 48 h): abrogated | Pom-induced MM cell growth inhibition after TP53RK knockdown ([7]; H929 cells, TP53RK siRNA then Pom 48 h, p<0.02): enhanced | sensitivity of MM cell lines to drug ([7]; MM.1S and H929 cells with wt-p53 versus cell lines with mutant p53): more sensitive | drug-triggered cell death after CRBN knock-down ([7]; OPM2 cells (mutant p53) and H929 cells (wt-p53)): only partially abrogates | anti-MM activity ([7]; among the IMiDs Thal, Len, Pom): most potent anti-MM activity | RRM1 expression [8]: downregulate | p18CDKN2C expression [8]: upregulate | potency of p-p53/p53 downregulation, Pom versus Len ([1]; MM.1S cells): more potently | p53 phosphorylation at Ser20 and Ser37 ([1]; MM.1S cells, 2.5 μM, 48 h): no change | phosphorylated (p-Ser15)-p53 and p53 levels ([1]; MM.1S cells, 2.5 μM, 48 h): downregulated | downstream p-p53 level ([1]; MM.1S cells, 48 h): markedly reduced | Nut3-induced upregulation of p-p53 and p53 ([1]; MM.1S cells, Len or Pom 2.5 μM with Nutlin-3a 0.5 μM, 48 h): inhibited | p-p53/p53 downregulation ([1]; nuclear extracts from MM.1S and H929 cell lines, patient MM cells): further confirmed | LC3-II level ([2]; 2.5 μM, 48 h): upregulation | p53 activity (p53 DNA binding) [9]: block | phosphorylation of ATM, ATR or Chk2 [10]: not | phosphorylation of Chk1 [10]: inhibited | hTERT expression [11]: significantly inhibited | telomerase (hTERT) activity [11]: significantly inhibited | TP53RK level ([12]; MM.1S cells, 48 h): induced downregulation

CC1(N2C(=O)c3cccc(N)c3C2=O)CCC(=O)NC1=O (stereo not drawn) [3′-methyl derivative]
activity in B cell growth inhibition relative to pomalidomide [13]: similar | activity in co-stimulation of IL-2 production relative to pomalidomide [14]: similar

B1: CRBN siRNA: SMARTpool of J-021086-9 to -12 siRNAs against CRBN (nucleic acid)
guide 1: CAAUUAGAAUCCCUCAAUA
guide 2: GUAUAAGGCUUGCAACUUG
guide 3: GACAUUACCUCUUCAGCUU
guide 4: CGACUUCGCUGUGAAUUAG
modifications: SMARTpool mixture, further chemistry not given here
notes: SMARTpool of J-021086-9 to -12 siRNAs against CRBN
chymotrypsin-like proteasome activity [5]: not | TP53RK expression after CRBN knockdown ([12]; H929 cells): did not change

B2: TP53RK siRNA: SMARTpool of J-003108-09, -10, -11, -12 siRNAs against TP53RK (Table 4) (nucleic acid)
guide 1: GGUAGAAGAAUGUGUAUGA
guide 2: GCUUCCAACUGCUUAUAUA
guide 3: GCUGAACAUUGUGCUCAUA
guide 4: GUACCCAUCCCAACACUGA
modifications: SMARTpool mixture, further chemistry not given here
IKZF1/3 expression after TP53RK knockdown ([4]; MM.1S cells and H929 cells): markedly downregulated | PSMB5 PSMB7 and PSMA3 mRNA [5]: downregulation | chymotrypsin-like proteasome activity [5]: significantly inhibited | poly-ubiquitinated proteins [5]: accumulation | proteasome pathway (GSEA) [5]: downregulated | MM cell growth, viable cells by Trypan-blue ([7]; H929 cells, siRNA knockdown): triggered MM cell growth inhibition | cell growth after knock-down ([7]; MM.1S and H929 cells): growth inhibition | RRM1 expression [8]: downregulation | p18CDKN2C expression [8]: upregulation | hTERT expression [11]: downregulated | CRBN expression after TP53RK knock-down ([12]; H929 cells (also MM.1S)): did not modulate; also recorded: not altered | TP53RK mRNA levels ([12]; MM.1S and H929 cells): markedly decreased
